Columns and labels:
[1] = system: oilseed rape; assay: Test C postemergence; format: in vivo, Brassica napus
Method in brief: (§1)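 Plants are treated postemergence at the 1- to 4-leaf stage (2 to 18 cm), grown in sphagnum peat/vermiculite medium; preemergence treatment is applied to seed planted in loam soil with sand. Both use test chemical in a non-phytotoxic solvent mixture with surfactant.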

[2] = system: ragweed; assay: Test C postemergence; format: in vivo, Ambrosia elatior
Method in brief: as §1

[3] = system: foxtail, giant; assay: Test C postemergence; format: in vivo, Setaria faberii
Method in brief: as §1

[4] = system: corn; assay: Test C postemergence; format: in vivo, Zea mays
Method in brief: as §1

[5] = system: blackgrass; assay: Test C postemergence; format: in vivo, Alopecurus myosuroides
Method in brief: as §1

[6] = system: barnyardgrass; assay: Test C postemergence; format: in vivo, Echinochloa crus-galli
Method in brief: as §1

[7] = system: kochia; assay: Test C postemergence; format: in vivo, Kochia scoparia
Method in brief: as §1

[8] = system: waterhemp; assay: Test C postemergence; format: in vivo, Amaranthus rudis
Method in brief: as §1

[9] = system: barnyardgrass; assay: Test A preemergence; format: in vivo, Echinochloa crus-galli; settings: 0 to 100 scale (0 no effect, 100 complete control)
Method in brief: (§2)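 Loam/sand soil mix; compound in non-phytotoxic solvent + surfactant. Pre: directed soil spray right after planting seed. Post: potted plants 2–10 cm, 1–2 leaf stage, sprayed with same formulation.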

[10] = system: barnyardgrass; assay: Test B flooded paddy test; format: in vivo, Echinochloa crus-galli; settings: 250 g ai/ha, applied to paddy water at 2-leaf stage, visual rating after 13 to 15 d, scale 0 (no effect) to 100 (complete control)
Method in brief: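 Pots were flooded to 3 cm above the soil at treatment, and compounds were applied directly into the paddy water. That depth was held throughout. After 13 to 15 d in a greenhouse, plants were rated visually against untreated controls.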

[11] = system: johnsongrass; assay: Test C postemergence; format: in vivo, Sorghum halepense
Method in brief: as §1

[12] = system: pigweed; assay: Test A postemergence; format: in vivo, Amaranthus retroflexus; settings: 0 to 100 scale (0 no effect, 100 complete control), approx. 10 d
Method in brief: as §2

[13] = system: lambsquarters; assay: Test C postemergence; format: in vivo, Chenopodium album
Method in brief: as §1

[14] = system: foxtail, giant; assay: Test A postemergence; format: in vivo, Setaria faberii; settings: 0 to 100 scale (0 no effect, 100 complete control), approx. 10 d
Method in brief: as §2

[15] = system: wheat; assay: Test A postemergence; format: in vivo, Triticum aestivum; settings: 0 to 100 scale (0 no effect, 100 complete control), approx. 10 d
Method in brief: as §2

[16] = system: crabgrass, large; assay: Test C postemergence; format: in vivo, Digitaria sanguinalis
Method in brief: as §1

[17] = system: galium; assay: Test C postemergence; format: in vivo, Galium aparine
Method in brief: as §1

[18] = system: pigweed; assay: Test C postemergence; format: in vivo, Amaranthus retroflexus
Method in brief: as §1

[19] = system: velvetleaf; assay: Test C postemergence; format: in vivo, Abutilon theophrasti
Method in brief: as §1

COc1nc(-c2ccccc2)nn1Cc1ccnc(C(F)(F)F)c1 [Compound 32]
Plant response rating (scale of 0 to 100 where 0 is no effect and 100 is complete control) ([1]; Oilsee Rape, 250 g ai/ha): 45 | Plant response rating (scale of 0 to 100 where 0 is no effect and 100 is complete control) ([1]; Oilseed Rape, 31 g ai/ha): 20 | Plant response rating (scale of 0 to 100 where 0 is no effect and 100 is complete control) ([1]; Oilseed Rape, 62 g ai/ha): 5 | Plant response rating (scale of 0 to 100 where 0 is no effect and 100 is complete control) ([1]; Oilseed Rape, 125 g ai/ha): 10 | Plant response rating (scale of 0 to 100 where 0 is no effect and 100 is complete control) ([2]; 31 g ai/ha): 35 | Plant response rating (scale of 0 to 100 where 0 is no effect and 100 is complete control) ([2]; 62 g ai/ha): 70 | Plant response rating (scale of 0 to 100 where 0 is no effect and 100 is complete control) ([2]; 125 g ai/ha): 60 | Plant response rating (scale of 0 to 100 where 0 is no effect and 100 is complete control) ([2]; 250 g ai/ha): 60 | Plant response rating (scale of 0 to 100 where 0 is no effect and 100 is complete control) ([3]; 31 g ai/ha): 10 | Plant response rating (scale of 0 to 100 where 0 is no effect and 100 is complete control) ([3]; 62 g ai/ha): 10 | Plant response rating (scale of 0 to 100 where 0 is no effect and 100 is complete control) ([3]; 125 g ai/ha): 10 | Plant response rating (scale of 0 to 100 where 0 is no effect and 100 is complete control) ([3]; 250 g ai/ha): 10 | Plant response rating (scale of 0 to 100 where 0 is no effect and 100 is complete control) ([4]; 31 g ai/ha): 10 | Plant response rating (scale of 0 to 100 where 0 is no effect and 100 is complete control) ([4]; 62 g ai/ha): 20 | Plant response rating (scale of 0 to 100 where 0 is no effect and 100 is complete control) ([4]; 125 g ai/ha): 25 | Plant response rating (scale of 0 to 100 where 0 is no effect and 100 is complete control) ([4]; 250 g ai/ha): 35 | Plant response rating (scale of 0 to 100 where 0 is no effect and 100 is complete control) ([5]; 31 g ai/ha): 5 | Plant response rating (scale of 0 to 100 where 0 is no effect and 100 is complete control) ([5]; 62 g ai/ha): 5 | Plant response rating (scale of 0 to 100 where 0 is no effect and 100 is complete control) ([5]; 125 g ai/ha): 5 | Plant response rating (scale of 0 to 100 where 0 is no effect and 100 is complete control) ([5]; 250 g ai/ha): 15 | Plant response rating (scale of 0 to 100 where 0 is no effect and 100 is complete control) ([6]; 31 g ai/ha): 10 | Plant response rating (scale of 0 to 100 where 0 is no effect and 100 is complete control) ([6]; 62 g ai/ha): 15 | Plant response rating (scale of 0 to 100 where 0 is no effect and 100 is complete control) ([6]; 125 g ai/ha): 20 | Plant response rating (scale of 0 to 100 where 0 is no effect and 100 is complete control) ([6]; 250 g ai/ha): 20 | Plant response rating (scale of 0 to 100 where 0 is no effect and 100 is complete control) ([7]; 31 g ai/ha): 80 | Plant response rating (scale of 0 to 100 where 0 is no effect and 100 is complete control) ([7]; 62 g ai/ha): 90 | Plant response rating (scale of 0 to 100 where 0 is no effect and 100 is complete control) ([7]; 125 g ai/ha): 90 | Plant response rating (scale of 0 to 100 where 0 is no effect and 100 is complete control) ([7]; 250 g ai/ha): 90 | Plant response rating (scale of 0 to 100 where 0 is no effect and 100 is complete control) ([8]; 31 g ai/ha): 85 | Plant response rating (scale of 0 to 100 where 0 is no effect and 100 is complete control) ([8]; 62 g ai/ha): 90 | Plant response rating (scale of 0 to 100 where 0 is no effect and 100 is complete control) ([8]; 125 g ai/ha): 90 | Plant response rating (scale of 0 to 100 where 0 is no effect and 100 is complete control) ([8]; 250 g ai/ha): 98 | Plant response rating, Barnyardgrass ([9]; 125 g ai/ha): 20 | Plant response rating, Barnyardgrass ([9]; 500 g ai/ha, approx. 10 d): 80 | Plant response rating, Barnyardgrass, Flood [10]: 0 | Plant response rating (scale of 0 to 100 where 0 is no effect and 100 is complete control) ([11]; 31 g ai/ha): 10 | Plant response rating (scale of 0 to 100 where 0 is no effect and 100 is complete control) ([11]; 62 g ai/ha): 10 | Plant response rating (scale of 0 to 100 where 0 is no effect and 100 is complete control) ([11]; 125 g ai/ha): 10 | Plant response rating (scale of 0 to 100 where 0 is no effect and 100 is complete control) ([11]; 250 g ai/ha): 10 | Plant response rating, Pigweed ([12]; 125 g ai/ha): 90 | Plant response rating, Pigweed ([12]; 500 g ai/ha): 100 | Plant response rating (scale of 0 to 100 where 0 is no effect and 100 is complete control) ([13]; 31 g ai/ha): 100 | Plant response rating (scale of 0 to 100 where 0 is no effect and 100 is complete control) ([13]; 62 g ai/ha): 95 | Plant response rating (scale of 0 to 100 where 0 is no effect and 100 is complete control) ([13]; 125 g ai/ha): 100 | Plant response rating (scale of 0 to 100 where 0 is no effect and 100 is complete control) ([13]; 250 g ai/ha): 98 | Plant response rating, Foxtail, Giant ([14]; 125 g ai/ha): 60 | Plant response rating, Foxtail, Giant ([14]; 500 g ai/ha): 90 | Plant response rating, Wheat ([15]; 125 g ai/ha): 0 | Plant response rating, Wheat ([15]; 500 g ai/ha): 20 | Plant response rating (scale of 0 to 100 where 0 is no effect and 100 is complete control) ([16]; 31 g ai/ha): 5 | Plant response rating (scale of 0 to 100 where 0 is no effect and 100 is complete control) ([16]; 62 g ai/ha): 10 | Plant response rating (scale of 0 to 100 where 0 is no effect and 100 is complete control) ([16]; 125 g ai/ha): 25 | Plant response rating (scale of 0 to 100 where 0 is no effect and 100 is complete control) ([16]; 250 g ai/ha): 25 | Plant response rating (scale of 0 to 100 where 0 is no effect and 100 is complete control) ([17]; 31 g ai/ha): 20 | Plant response rating (scale of 0 to 100 where 0 is no effect and 100 is complete control) ([17]; 62 g ai/ha): 45 | Plant response rating (scale of 0 to 100 where 0 is no effect and 100 is complete control) ([17]; 125 g ai/ha): 60 | Plant response rating (scale of 0 to 100 where 0 is no effect and 100 is complete control) ([17]; 250 g ai/ha): 75 | Plant response rating (scale of 0 to 100 where 0 is no effect and 100 is complete control) ([18]; 31 g ai/ha): 98 | Plant response rating (scale of 0 to 100 where 0 is no effect and 100 is complete control) ([18]; 62 g ai/ha): 95 | Plant response rating (scale of 0 to 100 where 0 is no effect and 100 is complete control) ([18]; 125 g ai/ha): 98 | Plant response rating (scale of 0 to 100 where 0 is no effect and 100 is complete control) ([18]; 250 g ai/ha): 98 | Plant response rating (scale of 0 to 100 where 0 is no effect and 100 is complete control) ([19]; 31 g ai/ha): 15 | Plant response rating (scale of 0 to 100 where 0 is no effect and 100 is complete control) ([19]; 62 g ai/ha): 10 | Plant response rating (scale of 0 to 100 where 0 is no effect and 100 is complete control) ([19]; 125 g ai/ha): 20 | Plant response rating (scale of 0 to 100 where 0 is no effect and 100 is complete control) ([19]; 250 g ai/ha): 20

From patent US10681909B2, “Herbicidal triazoles” (FMC Corporation, priority 2014, dated 2020)
